Test results from patent US5922708A, “Heteroaryl-oxazolidinones” (Bayer Aktiengesellschaft, priority 1996, dated 1999).
≈ marks a conversion by molar mass, not a printed value. Where two headings read alike, the source gives them in different places.

Legend:
Type in all cases: cell-based
[1] = system: Staph. 9TV; experiment: MIC by serial dilution method on Iso-Sensitest agar
Procedure: (§1) The minimum inhibitory concentrations (MIC) were determined by the serial dilution method on Iso-Sensitest agar (Oxoid). For each test substance a series of agar plates were prepared which contained decreasing concentrations of the active substance, obtained by twofold dilution from one plate to the next. The agar plates were inoculated with a Multipoint inoculator (Denley). Inoculation was effected using overnight cultures of the pathogens which had been diluted beforehand so that each inoculation point contained ca. 10^4 colony forming particles. The inoculated agar plates were incubated at 37° C. and the bacterial growth was evaluated after ca. 20 hours. The MIC value (μg/ml) indicates the lowest active substance concentration at which no growth was detectable with the naked eye.

[2] = system: Staph. 25701; experiment: as above
Procedure: as §1

[3] = system: Psdm. Bonn; experiment: as above
Procedure: as §1

[4] = system: E. coli Neumann; experiment: as above; conditions: Escherichia coli
Procedure: as §1

[5] = system: Staph. 133; experiment: as above
Procedure: as §1

[6] = system: Staph. 48N; experiment: as above
Procedure: as §1

[7] = system: Klebs. 57 USA; experiment: as above
Procedure: as §1

[8] = system: Mycobacterium smegmatis DSM 43078; experiment: MIC for rapidly growing mycobacteria, broth microdilution method; conditions: Mycolicibacterium smegmatis, DSM43078, inoculum 4.20E + 04 [/ml], 37° C., 2-4 days
Procedure: For rapidly growing mycobacteria the MIC were determined on the basis of the broth microdilution method described by Swenson [cf. J. M. Swenson, C. Thomberry, U. A. Silcox, Rapidly growing mycobacteria. Testing of susceptibility to 34 antimicrobial agents by broth microdilution. Antimicrobial Agents and Chemotherapy, vol. 22, 186-192 (1982)]. The brain-heart extract medium treated with 0.1 vol.% of Tween 80 was an exception.
The mycobacterial strains used were obtained from the DSM (Deutsche Sammlung von Mikroorganismen (German Collection of Microorganisms), Brunswick). They were incubated in a moist chamber at 37° C.
The MIC values were evaluated after 2-4 days, when the preparation-free controls were opaque due to growth.

[9] = Staph. 9TV, agar, 37° C., ca. 20 hours, read-out: MIC
[10] = Staph. 25701, agar, 37° C., ca. 20 hours, read-out: MIC
[11] = E. coli Neumann, agar, 37° C., ca. 20 hours, read-out: MIC
[12] = Staph. 133, agar, 37° C., ca. 20 hours, read-out: MIC
[13] = Staph. 48N, agar, 37° C., ca. 20 hours, read-out: MIC
[14] = Klebs. 57 USA, agar, 37° C., ca. 20 hours, read-out: MIC

MIC ([3]; Psdm. Bonn, agar, 37° C., ca. 20 hours, read-out: MIC) | MIC [8] | SMILES | MIC [1, 9] | MIC [2, 10] | MIC [4, 11] | MIC [5, 12] | MIC [6, 13] | MIC [7, 14] | MIC ([1]; 20 h) | MIC ([2]; 20 h) | MIC ([3]; 20 h) | MIC ([4]; 20 h) | MIC ([5]; 20 h) | MIC ([6]; 20 h) | MIC ([7]; 20 h)
> 64 µg/mL | – | CCCOC(=O)NC[C@H]1CN(c2ccc(-c3cccnc3)s2)C(=O)O1 [Example 20] | 2 µg/mL (≈ 5.53 µM) | 2 µg/mL (≈ 5.53 µM) | > 64 µg/mL | 2 µg/mL (≈ 5.53 µM) | 2 µg/mL (≈ 5.53 µM) | > 64 µg/mL | – | – | – | – | – | – | –
– | – | O=C(CF)NC[C@H]1CN(c2ccc(-c3cccnc3)s2)C(=O)O1 [Example 18] | – | – | – | – | – | – | 1 µg/mL (≈ 2.98 µM) | 4 µg/mL (≈ 11.9 µM) | > 64 µg/mL | > 64 µg/mL | 2 µg/mL (≈ 5.96 µM) | 4 µg/mL (≈ 11.9 µM) | > 64 µg/mL
– | – | COC(=O)NC[C@H]1CN(c2ccc(Br)c(C)n2)C(=O)O1 [Example 25] | 1 µg/mL (≈ 2.91 µM) | 2 µg/mL (≈ 5.81 µM) | > 64 µg/mL | 2 µg/mL (≈ 5.81 µM) | 2 µg/mL (≈ 5.81 µM) | > 64 µg/mL | – | – | – | – | – | – | –
– | 2 µg/mL | NNC(=O)c1ccncc1 [Isoniazid] | – | – | – | – | – | – | – | – | – | – | – | – | –
